Reference: paper PMC4433269 (PLoS ONE, 2015)
Where two headings read alike, the source gives them in different places.

Tests used:
[1] = tested on: P-glycoprotein; assay: Effect on the level of the P-gp substrate digoxin in rat gut sacs; type: in vitro ADME
Protocol: (§1) All of the rats were starved for 24 h before the experiments. The rats were sacrificed by decapitation, and the duodenum, jejunum, ileum and colon were immediately removed and placed in a 37°C K-R solution that was oxygenated (O2/CO2, 95%:5%). After washing in order with K-R solution at room temperature, the four intestinal segments were everted on a glass rod (3 mm in diameter) with one end of each clamped before filling with fresh oxygenated K-R solution. The intestines were then sealed with braided sutures. Each sac was placed in a 10 mL test tube that contained 8 mL of oxygenated drug-containing K-R solution at 37°C. Then, 0.1 mL of serosal fluid was collected at the appropriate time points, and an equal volume of K-R solution was added to the serosal side. Finally, the solution in the sacs was collected to accurately calculate the volume, and each sac was accurately weighed before and after being cut open. The area of each sac was measured. All of the samples were analyzed using the UPLC-MS method. After analysis, the amounts (ng/mm^2) of absorbed aconitine and digoxin were calculated. Each experiment was repeated five times, and the presented data represent the means ± S.D. This study was conducted in accordance with the internationally accepted principles for laboratory animal use and care as found in the European Community guidelines.
The flow rate was 0.3 mL/min.

[2] = tested on: everted rat gut sacs; conditions: for ER(P2/P0): Papp with 6-gingerol / Papp alone; for ER(P1/P0): Papp with Rhizoma Zingiberis extract / Papp alone
Protocol: as §1
(§2) The analytical UPLC-MS system consisted of an Acquity Ultra Performance LC with a Xevo TQ mass spectrometer as the detector, and it was equipped with an electrospray source in the positive ion mode (Waters Co., USA). Separation was performed on a BEH Extend-C18 column (2.1*50 mm, 1.7 μm, Agilent Co., USA). The mobile phase was composed of methanol mixed with acetonitrile in equal volumes (A) and an aqueous solution of ammonium acetate at pH 10.5 (B). The gradient elution conditions were as follows: 0–1 min 10–43% A, 2–4.5 min 55–100% A, and 5–7 min 10% A. The flow rate was 0.3 mL/min. The column temperature was 35°C throughout the entire detection process. All of the samples were freeze-dried after being collected from the serosal side, and the residue was dissolved with 0.1 mL of the mobile phase (A) prior to injecting 5 μL of each sample into the UPLC system.
To study the effect of the Rhizoma Zingiberis extract on the concentration of aconitine in the rat gut sacs, the apparent […] coefficient (Papp) was calculated using the equation Papp = [V/(A·C0)]·dC/dt, where V represents the fluid volume in the serosal side, A represents the superficial area of the gut sac, and C0 represents the initial concentration of aconitine outside the gut sac.
The experiment described in this section was conducted under the same conditions as decribed in the “Effect of the Rhizoma Zingiberis extract on the level of aconitine in the rat gut sacs” section.

[3] = tested on: P-glycoprotein; conditions: deduced from verapamil effect in rat gut sacs
Protocol: as §1

[4] = tested on: everted rat gut sacs; type: in vitro ADME; conditions: 120 min
Protocol: as §1, §2
The intestinal kinetic absorptive behavior of aconitine was investigated in the gut sac model cultured in K-R nutrient solution for 120 min. The accumulative absorbed dose (Q) of aconitine was calculated for use in zero-level, primary and Higuchi equation fitting. Then, the determination coefficient (R^2) of the equation was set as the evaluation criterion for the quality of the fit. […] The slope of the fitting equation represents the absorption rate constant (ka).

[5] = tested on: P-glycoprotein; design: method as in earlier work; conditions: Caco-2 cell culture model; cited from earlier work
[6] = Solubility in tested solvents during sample processing; conditions: tested solvents: methanol, ethanol, acetonitrile, distilled water, DMSO
Protocol: Because there were numerous inorganic salts that were harmful to the mass spectrometer in the everted sac samples, dechloridation was the first consideration when we developed the processing method. We applied lyophilization as the first step for prolonging the resting period of the samples to avoid the decomposition of unstable components. […] Therefore, the second step consisted of dissolving aconitine in methanol. […] The third step consisted of centrifuging, and 5 μL of the supernatant liquid was injected into the UPLC/MS.

[7] = type: physicochemical; conditions: for Stability RSD%: 0 h, 24 h and 48 h; for Stability of QC samples: RSD % less than 15%
Protocol: The selectivity was examined by detecting blank K-R nutrient solutions, which were useful only if no peaks appeared at the retention times of aconitine and digoxin. The inter-day and intra-day accuracies were evaluated by calculating the percent relative standard deviation (RSD %) of the concentration of the quality control (QC) samples on the same day or over three days. The matrix effect was determined by comparing the concentrations of samples with standard solution added into a blank K-R solution after extraction with QC samples. The extraction recovery was calculated by comparing the concentration of normally extracted samples with that of the QC samples. The stability was evaluated by calculating the RSD % of the concentration of the quality control (QC) samples at 0 h, 24 h and 48 h. The accuracy, matrix effect, extraction recovery and stability were all replicated by five QC samples at three levels. The LOD and LLOQ were the concentrations of QC samples with peak signal-to-noise ratios (S/N) of at least 3 and 10, respectively.

[8] = tested on: everted rat gut sacs; assay: Viability of the everted rat gut sacs (serosal/mucosal glucose ratio); conditions: incubation up to 120 min; Fig 5
Protocol: To verify the integrity and viability of the gut sacs, glucose was collected from both the serosal side and the mucosal side of the rat gut sacs at a fixed time, and glucose was detected using a Waters UPLC/MS (Waters Co., USA), which is more accurate and sensitive than a UV-Vis detector. Separation was performed on a Hypersil NH column (4.6*150 mm, 25 μm, Elite Co., China). Although only glucose was available for detection in this part, the column separation was essential because large amounts of inorganic salts were present in the K-R nutrient solution. A mobile phase composed of 80% acetonitrile (A) and 20% distilled water (B) was used for isocratic elution. The retention time for glucose was 7.37 min. The peak area ratio of glucose in the serosal side to that in the mucosal side was used to validate the viability of the everted rat gut sacs.

[9] = Middle concentration QC samples

## CCCCC[C@H](O)CC(=O)CCc1ccc(O)c(OC)c1 [6-gingerol]
[1]; co-incubated with digoxin, every gut sac, Fig 7, Fig 9
  Effect on digoxin content in gut sacs: decreased
[1]; deduced from decreased digoxin level in rat gut sacs
  Effect on P-glycoprotein (inducer / revulsant): potential revulsant of P-gp
[2]; added to high aconitine concentration, all four gut sacs
  Effect on the level (Papp) of aconitine in the rat gut sacs: P2 value is smaller than the P0 value in each gut sac

## CCN1C[C@]2(COC)[C@H](O)C[C@H](OC)[C@@]34[C@@H]5C[C@@]6(O)[C@H](OC(=O)c7ccccc7)[C@@H]5[C@@](OC(C)=O)([C@@H]([C@H](OC)[C@H]23)[C@@H]14)[C@@H](O)[C@@H]6OC [aconitine]
[3]
  P-glycoprotein substrate status: potential substrate of P-glycoprotein
[4]; colon, aconitine 75 ng/mL
  Fitting equation (zero-level; slope = absorption rate constant ka): Q = 0.01937t
[4]; colon, aconitine 750 ng/mL
  Fitting equation (zero-level; slope = absorption rate constant ka): Q = 0.1302t
[4]; colon, aconitine 7500 ng/mL
  Fitting equation (zero-level; slope = absorption rate constant ka): Q = 2.000t
[4]; duodenum, aconitine 75 ng/mL
  Fitting equation (zero-level; slope = absorption rate constant ka): Q = 0.02546t
[4]; duodenum, aconitine 750 ng/mL
  Fitting equation (zero-level; slope = absorption rate constant ka): Q = 0.05406t
[4]; duodenum, aconitine 7500 ng/mL
  Fitting equation (zero-level; slope = absorption rate constant ka): Q = 3.528t
[4]; ileum, aconitine 75 ng/mL
  Fitting equation (zero-level; slope = absorption rate constant ka): Q = 0.01294t
[4]; ileum, aconitine 750 ng/mL
  Fitting equation (zero-level; slope = absorption rate constant ka): Q = 0.2906t
[4]; ileum, aconitine 7500 ng/mL
  Fitting equation (zero-level; slope = absorption rate constant ka): Q = 2.529t
[4]; jejunum, aconitine 75 ng/mL
  Fitting equation (zero-level; slope = absorption rate constant ka): Q = 0.02977t
[4]; jejunum, aconitine 750 ng/mL
  Fitting equation (zero-level; slope = absorption rate constant ka): Q = 0.2028t
[4]; jejunum, aconitine 7500 ng/mL
  Fitting equation (zero-level; slope = absorption rate constant ka): Q = 3.2531t
[5]
  P-glycoprotein substrate / inhibitor status: both a substrate and an inhibitor of P-glycoprotein
[6]
  Solubility in solvents: able to be dissolved in methanol
[7]; High concentration QC samples
  Stability RSD%: 10.04%
[7]; Low concentration QC samples
  Stability RSD%: 2.448%
[7]; [9]
  Stability RSD%: 11.72%
[7]
  Stability of QC samples: stable for 48 h
[8]
  Toxicity to gut sac tissue (glucose serosal/mucosal ratio): did not induce toxicity in the gut sac tissue
[2]; colon
  ER(P2/P0): 0.4363
  ER(P1/P0): 0.6695
[2]; duodenum
  ER(P2/P0): 0.3602
  ER(P1/P0): 0.2703
[2]; ileum
  ER(P2/P0): 0.3464
  ER(P1/P0): 0.3615
[2]; jejunum
  ER(P2/P0): 0.3979
  ER(P1/P0): 0.3942

## C[C@H]1O[C@@H](O[C@H]2[C@@H](O)C[C@H](O[C@H]3[C@@H](O)C[C@H](O[C@H]4CC[C@@]5(C)[C@H](CC[C@@H]6[C@@H]5C[C@@H](O)[C@]5(C)[C@@H](C7=CC(=O)OC7)CC[C@]65O)C4)O[C@@H]3C)O[C@@H]2C)C[C@H](O)[C@@H]1O [digoxin, reference compound]
[6]
  Solubility in solvents: only could be dissolved in dimethyl sulfoxide (DMSO) among the tested solvents
[7]; High concentration QC samples
  Stability RSD%: 1.336%
[7]; Low concentration QC samples
  Stability RSD%: 2.036%
[7]; [9]
  Stability RSD%: 4.913%
[7]
  Stability of QC samples: stable for 48 h
